Test results published in patent publication US9828350B2, “5,6-dihydro-2H-[1,4]oxazin-3-yl-amine derivatives useful as inhibitors of beta-secretase (BACE)” (Janssen Pharmaceutica NV, priority 2010, dated 2017).

Tests used:
[1] = target: recombinant BACE1 protein (Homo sapiens, UniProt P56817); assay: Biochemical FRET based assay; settings: recombinant BACE1 1 μg/ml, 120 minutes at room temperature, pH 5.0; for IC50: read-out: Biochemical FRET based assay pIC50 (converted)
Procedure, shortened: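 Proteolysis was read as the rise in donor fluorescence (320 nm excitation, 405 nm emission) from T0 to T120, expressed in RFU. The reaction ran 120 minutes at room temperature at pH 5.0 in citrate buffer with 4% DMSO, using […] quenched Swedish APP peptide and 1 μg/ml BACE1.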

[2] = system: Abeta total; assay: Cellular αLisa assay in SKNBE2 cells, Abeta total; assay type: cell-based, human; settings: incubated for 18 hours; for IC50: Homo sapiens, SKNBE2, 18 h, read-out: Cellular αLisa assay in SKNBE2 cells Abetatotal pIC50 (converted)
Procedure, shortened: (§1)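 Secreted Abeta levels were measured by sandwich αLisa, pairing biotin-AbN/25 donor beads with Ab4G8 acceptor beads for total Abeta or cAb42/26 for Abeta 1-42, read at 615 nm after 650 nm excitation following 1 hour. Cells were SKNBE2 expressing wild-type hAPP695, exposed to compound for 18 hours.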

[3] = system: Abeta 1-42; assay: Cellular αLisa assay in SKNBE2 cells, Abeta 1-42; assay type: cell-based, human; settings: incubated for 18 hours; for IC50: Homo sapiens, SKNBE2, 18 h, read-out: Cellular αLisa assay in SKNBE2 cells Abeta 42 pIC50 (converted)
Procedure, shortened: as §1

Chain of recombinant BACE1 protein (P56817 46-501): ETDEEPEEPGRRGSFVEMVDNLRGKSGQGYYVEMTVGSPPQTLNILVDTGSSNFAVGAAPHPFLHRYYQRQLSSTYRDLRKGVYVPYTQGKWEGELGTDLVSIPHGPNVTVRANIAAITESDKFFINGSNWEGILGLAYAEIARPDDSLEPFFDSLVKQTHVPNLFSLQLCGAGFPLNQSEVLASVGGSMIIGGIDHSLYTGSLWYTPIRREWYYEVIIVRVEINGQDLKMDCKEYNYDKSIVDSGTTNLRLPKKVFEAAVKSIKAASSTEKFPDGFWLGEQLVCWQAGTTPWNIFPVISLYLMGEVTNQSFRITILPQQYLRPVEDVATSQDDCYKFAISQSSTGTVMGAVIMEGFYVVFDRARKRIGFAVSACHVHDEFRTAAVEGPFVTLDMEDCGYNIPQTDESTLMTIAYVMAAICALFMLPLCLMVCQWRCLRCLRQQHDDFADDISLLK

SMILES: Cc1ccc(C(=O)Nc2cccc(C3(C)N=C(N)COC3(F)C(F)(F)F)c2)nc1 (single isomer, unassigned) [Compound 191]
- IC50 [1]: 18.6 µM
- Cellular αLisa assay in SKNBE2 cells Abetatotal pIC50 [2]: 5.46
- Cellular αLisa assay in SKNBE2 cells Abeta 42 pIC50 [3]: 5.04

SMILES: Cc1ccc(C(=O)Nc2cccc(C3(C)N=C(N)COC3(F)C(F)(F)F)c2)nc1 (single isomer, unassigned) [Compound 192]
- IC50 [1]: > 30.2 µM
- Cellular αLisa assay in SKNBE2 cells Abetatotal pIC50 [2]: <5
- Cellular αLisa assay in SKNBE2 cells Abeta 42 pIC50 [3]: <5

SMILES: Cc1ccc(C(=O)Nc2cccc(C3(C)N=C(N)COC3(F)C(F)(F)F)c2)nc1 (single isomer, unassigned) [Compound 193]
- IC50 [1]: 0.0741 µM
- Cellular αLisa assay in SKNBE2 cells Abetatotal pIC50 [2]: 7.23
- Cellular αLisa assay in SKNBE2 cells Abeta 42 pIC50 [3]: 7.19

SMILES: Cc1ccc(C(=O)Nc2cccc(C3(C)N=C(N)COC3(F)C(F)(F)F)c2)nc1 (single isomer, unassigned) [Compound 194]
- IC50 [1]: 2 µM
- Cellular αLisa assay in SKNBE2 cells Abetatotal pIC50 [2]: 6.13
- Cellular αLisa assay in SKNBE2 cells Abeta 42 pIC50 [3]: 6.08

SMILES: NC1=NC(c2cccc(NC(=O)c3ccc(Cl)cn3)c2)(C2CC2)COC1 (single isomer, unassigned) [Compound 195]
- IC50 [1]: 0.0537 µM
- Cellular αLisa assay in SKNBE2 cells Abetatotal pIC50 [2]: 8.02
- Cellular αLisa assay in SKNBE2 cells Abeta 42 pIC50 [3]: 8.01

SMILES: NC1=NC(c2cccc(NC(=O)c3ccc(Cl)cn3)c2)(C2CC2)COC1 (single isomer, unassigned) [Compound 196]
- IC50 [1]: > 30.2 µM
- Cellular αLisa assay in SKNBE2 cells Abetatotal pIC50 [2]: 6.95
- Cellular αLisa assay in SKNBE2 cells Abeta 42 pIC50 [3]: 6.92

SMILES: CC1(c2cccc(-c3cncc(C#N)c3)c2)N=C(N)COC1C(F)(F)F (single isomer, unassigned) [Compound 205]
- IC50 [1]: 15.8 µM
- Cellular αLisa assay in SKNBE2 cells Abetatotal pIC50 [2]: 5.47
- Cellular αLisa assay in SKNBE2 cells Abeta 42 pIC50 [3]: 5.55

SMILES: CC1(c2cccc(-c3cncc(C#N)c3)c2)N=C(N)COC1C(F)(F)F (single isomer, unassigned) [Compound 206]
- IC50 [1]: > 30.2 µM
- Cellular αLisa assay in SKNBE2 cells Abetatotal pIC50 [2]: <5
- Cellular αLisa assay in SKNBE2 cells Abeta 42 pIC50 [3]: <5

SMILES: CC1(c2cccc(-c3cncc(C#N)c3)c2)N=C(N)COC1C(F)(F)F (single isomer, unassigned) [Compound 207]
- IC50 [1]: 3.47 µM
- Cellular αLisa assay in SKNBE2 cells Abetatotal pIC50 [2]: 6.24
- Cellular αLisa assay in SKNBE2 cells Abeta 42 pIC50 [3]: 6.33

SMILES: CC1(c2cc(-c3cncnc3)ccc2F)N=C(N)COC1C(F)(F)F (single isomer, unassigned) [Compound 238]
- IC50 [1]: 0.832 µM
- Cellular αLisa assay in SKNBE2 cells Abetatotal pIC50 [2]: 6.66
- Cellular αLisa assay in SKNBE2 cells Abeta 42 pIC50 [3]: 6.65

SMILES: CC1(c2cc(-c3cncc(C#N)c3)ccc2F)N=C(N)COC1C(F)(F)F (single isomer, unassigned) [Compound 265]
- IC50 [1]: 0.525 µM
- Cellular αLisa assay in SKNBE2 cells Abetatotal pIC50 [2]: 7.16
- Cellular αLisa assay in SKNBE2 cells Abeta 42 pIC50 [3]: 7.16

SMILES: CC1(c2cc(-c3cncc(C#N)c3)ccc2F)N=C(N)COC1C(F)(F)F (single isomer, unassigned) [Compound 266]
- IC50 [1]: > 30.2 µM
- Cellular αLisa assay in SKNBE2 cells Abetatotal pIC50 [2]: ~5
- Cellular αLisa assay in SKNBE2 cells Abeta 42 pIC50 [3]: <5

SMILES: CC1(c2cc(-c3cncnc3)ccc2F)N=C(N)COC1C(F)(F)F (single isomer, unassigned) [Compound 267]
- IC50 [1]: > 30.2 µM
- Cellular αLisa assay in SKNBE2 cells Abetatotal pIC50 [2]: <5
- Cellular αLisa assay in SKNBE2 cells Abeta 42 pIC50 [3]: 5.15

SMILES: CC1(c2cc(-c3cncnc3)ccc2F)N=C(N)COC1C(F)(F)F (single isomer, unassigned) [Compound 268]
- IC50 [1]: 0.363 µM
- Cellular αLisa assay in SKNBE2 cells Abetatotal pIC50 [2]: 7.09
- Cellular αLisa assay in SKNBE2 cells Abeta 42 pIC50 [3]: 7

SMILES: C[C@]1(c2ccnc(-c3cc(Cl)cc(Cl)c3)c2)N=C(N)CO[C@@H]1F (single isomer, unassigned) [Compound 277, (5R*,6R*)-5-[2-(3,5-dichlorophenyl)pyridin-4-yl]-6-fluoro-5-methyl-5,6-dihydro-2H-1,4-oxazin-3-amine]
- IC50 [1]: 0.219 µM
- IC50 [2]: 0.112 µM
- IC50 [3]: 0.107 µM

SMILES: C[C@@]1(c2ccnc(-c3cc(Cl)cc(Cl)c3)c2)N=C(N)CO[C@H]1F (single isomer, unassigned) [Compound 278, (5S*,6S*)-5-[2-(3,5-dichlorophenyl)pyridin-4-yl]-6-fluoro-5-methyl-5,6-dihydro-2H-1,4-oxazin-3-amine]
- IC50 [1]: 8.71 µM
- IC50 [2]: 3.16 µM
- IC50 [3]: 3.24 µM

SMILES: CC1(c2cc(NC(=O)c3cnc(C(F)(F)F)cn3)ccc2F)COCC(N)=N1 (stereo not drawn) [Compound 22]
- Biochemical FRET based assay pIC50 [1]: 6.7
- Cellular αLisa assay in SKNBE2 cells Abetatotal pIC50 [2]: 7.663
- Cellular αLisa assay in SKNBE2 cells Abeta 42 pIC50 [3]: 7.59

SMILES: CC1(c2cc(-c3cncc(Cl)c3)c(F)cc2F)COCC(N)=N1 (stereo not drawn) [Compound 23]
- Biochemical FRET based assay pIC50 [1]: 5.86
- Cellular αLisa assay in SKNBE2 cells Abetatotal pIC50 [2]: 6.85
- Cellular αLisa assay in SKNBE2 cells Abeta 42 pIC50 [3]: 6.89

SMILES: Cc1ccc(C(=O)Nc2ccc(F)c(C3(C)COCC(N)=N3)c2)nc1 (stereo not drawn) [Compound 24]
- Biochemical FRET based assay pIC50 [1]: 6.77
- Cellular αLisa assay in SKNBE2 cells Abetatotal pIC50 [2]: 7.73
- Cellular αLisa assay in SKNBE2 cells Abeta 42 pIC50 [3]: 7.77

SMILES: CC1(c2cc(NC(=O)c3ccc(F)cn3)ccc2F)COCC(N)=N1 (stereo not drawn) [Compound 25]
- Biochemical FRET based assay pIC50 [1]: 6.93
- Cellular αLisa assay in SKNBE2 cells Abetatotal pIC50 [2]: 7.9
- Cellular αLisa assay in SKNBE2 cells Abeta 42 pIC50 [3]: 7.93

SMILES: CC1(c2cc(NC(=O)c3ccc(C(F)(F)F)nn3)ccc2F)COCC(N)=N1 (stereo not drawn) [Compound 26]
- Biochemical FRET based assay pIC50 [1]: 5.67
- Cellular αLisa assay in SKNBE2 cells Abetatotal pIC50 [2]: 6.74
- Cellular αLisa assay in SKNBE2 cells Abeta 42 pIC50 [3]: 6.72

SMILES: CC1(c2cc(NC(=O)c3ccc(Cl)cc3F)ccc2F)COCC(N)=N1.Cl (stereo not drawn) [Compound 27]
- Biochemical FRET based assay pIC50 [1]: 6.35
- Cellular αLisa assay in SKNBE2 cells Abetatotal pIC50 [2]: 7.04
- Cellular αLisa assay in SKNBE2 cells Abeta 42 pIC50 [3]: 7.06

SMILES: CC1(c2cc(NC(=O)c3ccncn3)ccc2F)COCC(N)=N1 (stereo not drawn) [Compound 28]
- Biochemical FRET based assay pIC50 [1]: 6.18
- Cellular αLisa assay in SKNBE2 cells Abetatotal pIC50 [2]: 7.04
- Cellular αLisa assay in SKNBE2 cells Abeta 42 pIC50 [3]: 7.07

SMILES: CC1(c2cc(NC(=O)c3ccc(Cl)s3)ccc2F)COCC(N)=N1 (stereo not drawn) [Compound 29]
- Biochemical FRET based assay pIC50 [1]: 6.11
- Cellular αLisa assay in SKNBE2 cells Abetatotal pIC50 [2]: 6.67
- Cellular αLisa assay in SKNBE2 cells Abeta 42 pIC50 [3]: 6.67

SMILES: Cc1cccnc1C(=O)Nc1ccc(F)c(C2(C)COCC(N)=N2)c1 (stereo not drawn) [Compound 30]
- Biochemical FRET based assay pIC50 [1]: 6.05
- Cellular αLisa assay in SKNBE2 cells Abetatotal pIC50 [2]: 7.66
- Cellular αLisa assay in SKNBE2 cells Abeta 42 pIC50 [3]: 7.57

SMILES: CC1(c2cc(-c3cccc(C(F)(F)F)c3)c(F)cc2F)COCC(N)=N1 (stereo not drawn) [Compound 31]
- Biochemical FRET based assay pIC50 [1]: 4.76
- Cellular αLisa assay in SKNBE2 cells Abetatotal pIC50 [2]: 5.86
- Cellular αLisa assay in SKNBE2 cells Abeta 42 pIC50 [3]: 5.76

SMILES: CC1(c2cc(-c3cccc(C#N)c3)c(F)cc2F)COCC(N)=N1 (stereo not drawn) [Compound 32]
- Biochemical FRET based assay pIC50 [1]: 4.87
- Cellular αLisa assay in SKNBE2 cells Abetatotal pIC50 [2]: 6.25
- Cellular αLisa assay in SKNBE2 cells Abeta 42 pIC50 [3]: 6.2

SMILES: COc1ccc(-c2cc(C3(C)COCC(N)=N3)c(F)cc2F)cc1 (stereo not drawn) [Compound 33]
- Biochemical FRET based assay pIC50 [1]: 4.91
- Cellular αLisa assay in SKNBE2 cells Abetatotal pIC50 [2]: 5.75
- Cellular αLisa assay in SKNBE2 cells Abeta 42 pIC50 [3]: 5.72

SMILES: CC1(c2cc(-c3ccc(Cl)cc3)c(F)cc2F)COCC(N)=N1 (stereo not drawn) [Compound 34]
- Biochemical FRET based assay pIC50 [1]: 5.05
- Cellular αLisa assay in SKNBE2 cells Abetatotal pIC50 [2]: 5.58
- Cellular αLisa assay in SKNBE2 cells Abeta 42 pIC50 [3]: 5.54

SMILES: CC1(c2cc(NC(=O)c3ncc(Cl)cc3F)ccc2F)COCC(N)=N1 (stereo not drawn) [Compound 35]
- Biochemical FRET based assay pIC50 [1]: 7.11
- Cellular αLisa assay in SKNBE2 cells Abetatotal pIC50 [2]: 8.4
- Cellular αLisa assay in SKNBE2 cells Abeta 42 pIC50 [3]: 8.37

SMILES: CC1(c2cc(-c3cccc(OC(F)(F)F)c3)c(F)cc2F)COCC(N)=N1.Cl (stereo not drawn) [Compound 36]
- Biochemical FRET based assay pIC50 [1]: 5.13
- Cellular αLisa assay in SKNBE2 cells Abetatotal pIC50 [2]: 6.09
- Cellular αLisa assay in SKNBE2 cells Abeta 42 pIC50 [3]: 5.98

SMILES: C[C@@]1(c2cc(-c3cc(F)cc(F)c3)c(F)cc2F)COCC(N)=N1 [Compound 37]
- Biochemical FRET based assay pIC50 [1]: 5.45
- Cellular αLisa assay in SKNBE2 cells Abetatotal pIC50 [2]: 6.79
- Cellular αLisa assay in SKNBE2 cells Abeta 42 pIC50 [3]: 6.77

SMILES: C[C@@]1(c2cc(NC(=O)c3ccc(C(F)(F)F)cn3)ccc2F)COCC(N)=N1 [Compound 38]
- Biochemical FRET based assay pIC50 [1]: 6.91
- Cellular αLisa assay in SKNBE2 cells Abetatotal pIC50 [2]: 8.35
- Cellular αLisa assay in SKNBE2 cells Abeta 42 pIC50 [3]: 8.39

SMILES: Cc1cnc(C(=O)Nc2ccc(F)c([C@]3(C)COCC(N)=N3)c2)cn1 [Compound 40]
- Biochemical FRET based assay pIC50 [1]: 6.04
- Cellular αLisa assay in SKNBE2 cells Abetatotal pIC50 [2]: 7.32
- Cellular αLisa assay in SKNBE2 cells Abeta 42 pIC50 [3]: 7.31

SMILES: C[C@@]1(c2cc(NC(=O)c3ccc(Cl)cc3)ccc2F)COCC(N)=N1 [Compound 41]
- Biochemical FRET based assay pIC50 [1]: 6.33
- Cellular αLisa assay in SKNBE2 cells Abetatotal pIC50 [2]: 7.33
- Cellular αLisa assay in SKNBE2 cells Abeta 42 pIC50 [3]: 7.31

SMILES: COc1cc(Cl)ccc1C(=O)Nc1ccc(F)c([C@]2(C)COCC(N)=N2)c1 [Compound 45]
- Biochemical FRET based assay pIC50 [1]: 5.53
- Cellular αLisa assay in SKNBE2 cells Abetatotal pIC50 [2]: 6.92
- Cellular αLisa assay in SKNBE2 cells Abeta 42 pIC50 [3]: 6.85

SMILES: COc1cccc(-c2cc([C@]3(C)COCC(N)=N3)c(F)cc2F)c1 [Compound 47]
- Biochemical FRET based assay pIC50 [1]: 5.95
- Cellular αLisa assay in SKNBE2 cells Abetatotal pIC50 [2]: 6.83
- Cellular αLisa assay in SKNBE2 cells Abeta 42 pIC50 [3]: 6.79
